Columns and labels:
Type in all cases: functional
Conditions in all cases: read-out: GI
BGC-823 = assay: Antitumor activity against human BGC823 cells assessed as growth inhibition at 10 uM by SRB method
Fusarium oxysporum = assay: Antifungal activity against Fusarium oxysporum assessed as growth inhibition at 500 ug/mL by potted plant test
Corynespora cassiicola = assay: Antifungal activity against Corynespora cassiicola assessed as growth inhibition at 500 ug/mL by potted plant test
Bel-7402 = assay: Antitumor activity against human Bel7402 cells assessed as growth inhibition at 10 uM by SRB method
Rhizoctonia solani = assay: Antifungal activity against Rhizoctonia solani assessed as growth inhibition at 500 ug/mL by potted plant test
Phytophthora capsici = assay: Antifungal activity against Phytophthora capsici assessed as growth inhibition at 500 ug/mL by potted plant test
KB = assay: Antitumor activity against human KB cells assessed as growth inhibition at 10 uM by SRB method

| Compound | inhibition of growth at 10 µM (BGC-823) | inhibition of growth at 500 µg/mL (Fusarium oxysporum) | inhibition of growth at 500 µg/mL (Corynespora cassiicola) | inhibition of growth at 10 µM (Bel-7402) | inhibition of growth at 500 µg/mL (Rhizoctonia solani) | inhibition of growth at 500 µg/mL (Phytophthora capsici) | inhibition of growth at 10 µM (KB) |
| --- | --- | --- | --- | --- | --- | --- | --- |
| O=C(N/N=C/c1ccc(-c2ccccc2Cl)o1)c1ccccc1S[C@@H]1O[C@H](CO)[C@@H](O)[C@H](O)[C@H]1O | 6.21% | 8.06% | 41.9% | 2.09% | 34.4% | 90% | 24.3% |
| CC12CC1(C)C(=O)N(c1cc(Cl)cc(Cl)c1)C2=O (stereo not given) [PROCYMIDONE] | – | – | – | – | – | 93.2% | – |
| O=C(N/N=C/c1ccc(-c2ccc(F)cc2F)o1)c1ccccc1O[C@@H]1O[C@H](CO)[C@@H](O)[C@H](O)[C@H]1O | 6.66% | 0% | 50.8% | -5.7% | 45.3% | 85.5% | 18.2% |
| COc1cccc2c1C(=O)c1c(O)c3c(c(O)c1C2=O)C[C@@](O)(C(=O)CO)C[C@@H]3O[C@H]1C[C@H](N)[C@H](O)[C@H](C)O1 [DOXORUBICIN] | 51.2% | – | – | 6.53% | – | – | 45.1% |
| O=C(N/N=C/c1ccc(-c2ccccc2Cl)o1)c1ccccc1S[C@@H]1O[C@H](CO)[C@@H](O[C@@H]2O[C@H](CO)[C@H](O)[C@H](O)[C@H]2O)[C@H](O)[C@H]1O | 1.91% | 40.3% | 41.6% | 8.3% | 43.5% | 44.4% | -4.67% |
| O=C(N/N=C/c1ccc(-c2ccc(F)cc2F)o1)c1ccccc1S[C@@H]1O[C@H](CO)[C@@H](O)[C@H](O)[C@H]1O | 18.4% | 45.2% | 53.7% | -0.67% | 45.5% | 88.5% | -0.3% |
| OCC1=C[C@H](N[C@H]2C[C@H](CO)[C@@H](O[C@@H]3O[C@H](CO)[C@@H](O)[C@H](O)[C@H]3O)[C@H](O)[C@H]2O)[C@H](O)[C@@H](O)[C@@H]1O [VALIDAMYCIN] | – | – | – | – | 81% | – | – |
| COC(=O)NC(=S)Nc1ccccc1NC(=S)NC(=O)OC [THIOPHANATE METHYL] | – | 64.5% | – | – | – | – | – |
| N#Cc1c(Cl)c(Cl)c(Cl)c(C#N)c1Cl [CHLOROTHALONIL] | – | – | 83.9% | – | – | – | – |
| O=C(N/N=C/c1ccc(-c2ccccc2Cl)o1)c1ccccc1O[C@@H]1O[C@H](CO)[C@@H](O)[C@H](O)[C@H]1O | 1.88% | 64.5% | 49.3% | -10.3% | 33.3% | 90% | 9.11% |
| O=C(N/N=C/c1ccc(-c2ccc(F)cc2F)o1)c1ccccc1O | 68.4% | 8% | 27.7% | 63.4% | 16.1% | 52.8% | 61.8% |
| O=C(N/N=C/c1ccc(-c2ccc(F)cc2F)o1)c1ccccc1S[C@@H]1O[C@H](CO)[C@@H](O[C@@H]2O[C@H](CO)[C@H](O)[C@H](O)[C@H]2O)[C@H](O)[C@H]1O | -2.72% | 74.2% | 45.6% | -10.6% | 10.7% | 30% | 39.4% |
| COc1ccccc1C(=O)N/N=C/c1ccc(-c2ccc(F)cc2F)o1 | 35.9% | 9% | 38.5% | 1.69% | 2% | 20.9% | 10.1% |
| O=C(N/N=C/c1ccc(-c2ccc(F)cc2F)o1)c1ccccc1S[C@@H]1O[C@H](CO)[C@H](O)[C@H](O)[C@H]1O | 16.1% | 64.5% | 39.4% | 27.2% | 24.9% | 88.4% | 10.7% |
